Test results taken from the supplement of paper PMC11451515.

Test system: NOMO1
Experiment: cell viability relative to DMSO control; higher = less cytotoxic
Conditions: 48 h
Method in brief: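 Library compounds in DMSO were pin-dosed into 1536-well plates (5 μl) holding NOMO1 or SEM (500 cells/well) or P12-Ichikawa (1000 cells/well) leukemia cells, across an 11-point threefold series of 47 μM to 0.79 nM. Each cell line had been adapted for at least four passages in each medium. CellTiter-Glo One luminescence was read after 48 h at 37°C. Viability is the per-plate percentage relative to DMSO wells, with cell-free wells as background.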

[1] = HPLM + 10% dialyzed FBS, 0.000781 µM
[2] = HPLM + 10% dialyzed FBS, 0.00234 µM
[3] = HPLM + 10% dialyzed FBS, 0.00702 µM
[4] = HPLM + 10% dialyzed FBS, 0.0211 µM
[5] = HPLM + 10% dialyzed FBS, 0.0632 µM
[6] = HPLM + 10% dialyzed FBS, 0.19 µM
[7] = HPLM + 10% dialyzed FBS, 0.569 µM
[8] = HPLM + 10% dialyzed FBS, 1.71 µM
[9] = HPLM + 10% dialyzed FBS, 5.12 µM
[10] = HPLM + 10% dialyzed FBS, 15.4 µM
[11] = HPLM + 10% dialyzed FBS, 46.1 µM
[12] = RPMI 5 mM glucose + 10% FBS, 0.000781 µM
[13] = RPMI 5 mM glucose + 10% FBS, 0.00234 µM
[14] = RPMI 5 mM glucose + 10% FBS, 0.00702 µM
[15] = RPMI 5 mM glucose + 10% FBS, 0.0211 µM
[16] = RPMI 5 mM glucose + 10% FBS, 0.0632 µM
[17] = RPMI 5 mM glucose + 10% FBS, 0.19 µM
[18] = RPMI 5 mM glucose + 10% FBS, 0.569 µM
[19] = RPMI 5 mM glucose + 10% FBS, 1.71 µM
[20] = RPMI 5 mM glucose + 10% FBS, 5.12 µM
[21] = RPMI 5 mM glucose + 10% FBS, 15.4 µM
[22] = RPMI 5 mM glucose + 10% FBS, 46.1 µM
[23] = RPMI 5 mM glucose + 10% dialyzed FBS, 0.000781 µM
[24] = RPMI 5 mM glucose + 10% dialyzed FBS, 0.00234 µM
[25] = RPMI 5 mM glucose + 10% dialyzed FBS, 0.00702 µM
[26] = RPMI 5 mM glucose + 10% dialyzed FBS, 0.0211 µM
[27] = RPMI 5 mM glucose + 10% dialyzed FBS, 0.0632 µM
[28] = RPMI 5 mM glucose + 10% dialyzed FBS, 0.19 µM
[29] = RPMI 5 mM glucose + 10% dialyzed FBS, 0.569 µM
[30] = RPMI 5 mM glucose + 10% dialyzed FBS, 1.71 µM
[31] = RPMI 5 mM glucose + 10% dialyzed FBS, 5.12 µM
[32] = RPMI 5 mM glucose + 10% dialyzed FBS, 15.4 µM
[33] = RPMI 5 mM glucose + 10% dialyzed FBS, 46.1 µM

Compound	cell viability [1] [%]	cell viability [2] [%]	cell viability [3] [%]	cell viability [4] [%]	cell viability [5] [%]	cell viability [6] [%]	cell viability [7] [%]	cell viability [8] [%]	cell viability [9] [%]	cell viability [10] [%]	cell viability [11] [%]	cell viability [12] [%]	cell viability [13] [%]	cell viability [14] [%]	cell viability [15] [%]	cell viability [16] [%]	cell viability [17] [%]	cell viability [18] [%]	cell viability [19] [%]	cell viability [20] [%]	cell viability [21] [%]	cell viability [22] [%]	cell viability [23] [%]	cell viability [24] [%]	cell viability [25] [%]	cell viability [26] [%]	cell viability [27] [%]	cell viability [28] [%]	cell viability [29] [%]	cell viability [30] [%]	cell viability [31] [%]	cell viability [32] [%]	cell viability [33] [%]
CNC(=O)[C@H](CC/1=C/N=C\2/C=C\C\C=C12)NC(=O)[C@H](CC(C)C)CC(=O)NO	108	102	113	111	120	124	123	88.3	78.6	25.4	25.6	99.5	109	89.2	102	113	103	97	97.3	97.4	11.9	14.1	114	124	112	111	120	113	109	113	112	21.1	22.5
CN(C)C1=C(Br)C=C(C=C1)C\2NC3=C(\C4=C2C(=O)CC(C)(C)C4)C5=CC=CC=C5C=C3 (stereo unspecified)												103	124	119	113	114	103	113	98	110	103	102	75.9	117	158	172	182	71.7	52.3	89.3	143	74.4	94.8
CNC(=O)C1=CC=C(C)C(=C1)N2C(=C/C(=C(/Br)C2=O)OCC3=C(F)C=C(F)C=C3)\C												114	128	122	127	127	151	139	137	136	145	130											
CC/1=C(\O)C(=O)\C=C2/C1=C/C=C3\[C@@]2(C)CC[C@@]4(C)[C@@H]5C[C@@](C)(CC[C@]5(C)CC[C@]34C)C(O)=O	104	119	97.5	99.6	108	115	113	90	23.4	8.21	8.32	92.5	103	102	105	95	90.6	85.6	89.7	26.2	11	6.03	108	104	112	99.8	109	97.6	110	82.6	20.6	14.1	5.2
N=C1N[C@H]2[C@H](CS[C@H]2CCCCC(=O)O)N1	86.7	115	121	120	139	126	146	129	138	118	137	113	114	110	109	111	123	107	117	112	120	110	109	122	119	132	121	135	121	131	119	143	136
COC(=O)\C1=C\CCN(C)C1	125	115	111	102	101	124	135	115	113	112	109	84.7	94.8	96.5	91.3	85.3	94	110	97.4	93.6	87	99	95.7	96.3	98.9	95.7	107	97.4	92.5	97.6	88.9	102	103
CC(C)Cc1ccc(C(C)C(=O)O)cc1 (stereo unspecified)	84.6	106	96.7	115	95.6	102	90.6	102	82	91.4	89.7	79.4	93.9	94.3	87.3	97.2	83.9	97.9	86.7	83.9	86.1	89.6	85.6	83	77.8	85.4	72.7	82.2	76.5	91.6	81.9	80.5	82.1
N#C/N=C(\NCCCCCCOc1ccc(Cl)cc1)Nc1ccncc1	49.3	47.6	19.9	15.5	12.6	11.9	9.75	9.76	9.75	8.47	6.05	61	41.9	22	19.2	15.7	9.97	11.4	8.82	9.25	8.91	6.02	81.6	58.1	26.1	21	12.5	12.2	9.8	8.26	7.27	6.87	5.38
